In brackets after ≈: the same amount, converted by molar mass.
Tested on: Staphylococcus aureus
Experiment: Antibacterial activity against Staphylococcus aureus clinical isolate 19 assessed as growth inhibition at pH 9 after 16 to 18 hr by NCCLS agar dilution method
Format: functional

## CO/N=C/CC(=O)c1ccc(OC)cc1
  MIC: 16 µg/mL (≈ 77.2 µM)
